We go through 20 molecules from patent US11149037B2, “Pyrazole MAGL inhibitors” (H. Lundbeck A/S, priority 2017, dated 2021).

Each structure is given as a SMILES string. Some results are limits rather than exact numbers.

Holding throughout (assay type): biochemical
For assay [1], the target named is FAAH (Homo sapiens (Human), UniProt O00519). As to the kind of experiment: In vitro competitive activity-based protein profiling, human proteomes (prefrontal cortex or PC3 cell membrane fractions). The conditions noted are these: human proteome; for inhibition at 1 µM: read-out: FAAH % inh. 1 μM (human). The essentials:
(§1)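 Activity of MAGL and FAAH was quantified from fluorescent gel band intensities. Beforehand, inhibitors at several concentrations competed against subsequent probe labelling (FP-Rh, JW912 or HT-01) in species-matched proteomes, each step 30 min at 37° C.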

The target in assay [2] is MAGL (Homo sapiens (Human), UniProt Q99685). Described as above. The conditions noted are these: human proteome; for inhibition at 1 µM: read-out: MAGL % inh. 1 μM (human). The essentials: as §1
Sequence of MAGL (Homo sapiens (Human), UniProt Q99685) (Q99685 whole entry): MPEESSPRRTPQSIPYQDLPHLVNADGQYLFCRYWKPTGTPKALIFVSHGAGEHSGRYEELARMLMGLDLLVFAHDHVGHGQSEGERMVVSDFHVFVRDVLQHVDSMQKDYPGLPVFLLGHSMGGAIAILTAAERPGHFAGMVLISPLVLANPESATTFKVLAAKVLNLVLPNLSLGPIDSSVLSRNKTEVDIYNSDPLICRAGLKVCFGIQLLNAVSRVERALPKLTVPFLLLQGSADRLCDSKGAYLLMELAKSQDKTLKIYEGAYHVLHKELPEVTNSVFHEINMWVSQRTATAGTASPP
Assay [3] has as its target FAAH (Mus musculus (Mouse), UniProt O08914). As to the kind of experiment: In vitro competitive activity-based protein profiling, mouse proteomes (brain membrane fraction or cell lysates). The conditions noted are these: mouse proteome, read-out: FAAH % inh. 1 μM (mouse). The essentials:
as §1

Assay [4] has as its target MAGL (Mus musculus (Mouse), UniProt O35678). The assay is described as above. Particulars: mouse proteome, read-out: MAGL % inh. 1 μM (mouse). The essentials: as §1

Sequence of MAGL (Mus musculus (Mouse), UniProt O35678) (O35678 whole entry): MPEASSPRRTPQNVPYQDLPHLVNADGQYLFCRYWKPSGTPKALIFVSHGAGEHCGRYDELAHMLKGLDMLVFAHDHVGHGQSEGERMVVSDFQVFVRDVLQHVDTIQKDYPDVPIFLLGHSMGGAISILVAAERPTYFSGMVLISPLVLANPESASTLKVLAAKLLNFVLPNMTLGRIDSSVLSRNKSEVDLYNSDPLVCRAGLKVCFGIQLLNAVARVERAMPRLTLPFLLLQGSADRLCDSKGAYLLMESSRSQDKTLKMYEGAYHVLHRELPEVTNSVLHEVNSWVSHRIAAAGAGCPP
Sequence of FAAH (Mus musculus (Mouse), UniProt O08914) (O08914 whole entry): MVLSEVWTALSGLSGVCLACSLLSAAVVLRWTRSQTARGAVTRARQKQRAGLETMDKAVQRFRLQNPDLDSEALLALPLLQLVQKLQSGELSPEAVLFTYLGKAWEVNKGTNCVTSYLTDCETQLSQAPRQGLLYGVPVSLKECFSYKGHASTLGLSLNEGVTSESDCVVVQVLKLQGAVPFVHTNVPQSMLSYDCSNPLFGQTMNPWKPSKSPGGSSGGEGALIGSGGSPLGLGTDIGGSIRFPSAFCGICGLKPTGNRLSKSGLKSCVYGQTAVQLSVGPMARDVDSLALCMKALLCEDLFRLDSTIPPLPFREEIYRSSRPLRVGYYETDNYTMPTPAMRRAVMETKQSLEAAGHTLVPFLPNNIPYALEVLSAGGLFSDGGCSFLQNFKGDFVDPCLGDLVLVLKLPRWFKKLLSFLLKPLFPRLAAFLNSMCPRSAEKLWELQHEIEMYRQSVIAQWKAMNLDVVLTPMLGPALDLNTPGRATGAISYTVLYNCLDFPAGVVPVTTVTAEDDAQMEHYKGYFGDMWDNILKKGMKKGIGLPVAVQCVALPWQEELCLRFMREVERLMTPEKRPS
Sequence of FAAH (Homo sapiens (Human), UniProt O00519) (O00519 whole entry): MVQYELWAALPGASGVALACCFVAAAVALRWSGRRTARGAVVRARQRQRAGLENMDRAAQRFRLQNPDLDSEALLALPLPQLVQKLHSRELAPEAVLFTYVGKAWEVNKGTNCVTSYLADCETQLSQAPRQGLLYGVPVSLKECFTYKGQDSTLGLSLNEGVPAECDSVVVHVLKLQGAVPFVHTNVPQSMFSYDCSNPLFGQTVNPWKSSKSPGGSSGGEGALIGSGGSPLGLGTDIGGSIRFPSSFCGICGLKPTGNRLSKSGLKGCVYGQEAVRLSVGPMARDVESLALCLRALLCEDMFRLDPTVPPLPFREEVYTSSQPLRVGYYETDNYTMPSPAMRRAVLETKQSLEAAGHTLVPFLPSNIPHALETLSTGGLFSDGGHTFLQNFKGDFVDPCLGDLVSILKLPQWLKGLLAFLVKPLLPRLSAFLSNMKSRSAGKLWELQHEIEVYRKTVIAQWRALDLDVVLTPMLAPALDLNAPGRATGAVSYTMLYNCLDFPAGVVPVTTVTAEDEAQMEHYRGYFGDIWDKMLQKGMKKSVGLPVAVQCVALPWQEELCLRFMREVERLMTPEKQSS

With `Cc1nc(Cl)ccc1CN1CCN(C(=O)n2ccc(NS(C)(=O)=O)n2)CC1` [Example 61, N-(1-(4-((6-Chloro-2-methylpyridin-3-yl)methyl)piperazine-1-carbonyl)-1H-pyrazol-3-yl)methanesulfonamide], the inhibition at 1 µM is 0 to 25% on FAAH [1], 25 to 50% on MAGL [2], 0 to 25% on FAAH [3] and 50 to 75% on MAGL [4].
Consider `CS(=O)(=O)Nc1ccn(C(=O)N2CCC3(CCN(Cc4ccc(C(F)(F)F)cc4N4CCOCC4)C3)CC2)n1` [Example 62, N-(1-(2-(2-Morpholino-4-(trifluoromethyl)benzyl)-2,8-diazaspiro[4.5]decane-8-carbonyl)-1H-pyrazol-3-yl)methanesulfonamide], for which the inhibition at 1 µM at FAAH [1] is 0 to 25%; on MAGL [2] it was more than 75%; on FAAH [3], 0 to 25%; on MAGL [4], more than 75%.
Turning to `CS(=O)(=O)Nc1ccn(C(=O)N2CCC3(CCN(Cc4cc(N5CCCC5)cc(C(F)(F)F)c4)C3)CC2)n1` [Example 64, N-(1-(2-(3-(Pyrrolidin-1-yl)-5-(trifluoromethyl)benzyl)-2,8-diazaspiro[4.5]decane-8-carbonyl)-1H-pyrazol-3-yl)methanesulfonamide], the inhibition at 1 µM on FAAH [1] was 0 to 25%; on MAGL [2] it was more than 75%; on FAAH [3], 0 to 25%; at MAGL [4] it was more than 75%.
In the case of `Cc1c(CN2CCN(C(=O)n3ccc(NS(C)(=O)=O)n3)CC2)[nH]c2c(Cl)cccc12` [Example 65, N-(1-(4-((7-Chloro-3-methyl-1H-indol-2-yl)methyl)piperazine-1-carbonyl)-1H-pyrazol-3-yl)methanesulfonamide], the inhibition at 1 µM on FAAH [1] was 0 to 25%; on MAGL [2], more than 75%; at FAAH [3], 0 to 25%; on MAGL [4], more than 75%.
Take `CS(=O)(=O)Nc1ccn(C(=O)N2CCN(Cc3cc4cc(Cl)ccc4s3)CC2)n1` [Example 66, N-(1-(4-((5-Chlorobenzo[b]thiophen-2-yl)methyl)piperazine-1-carbonyl)-1H-pyrazol-3-yl)methanesulfonamide]: the inhibition at 1 µM on FAAH [1] is 0 to 25%; at MAGL [2], more than 75%; at FAAH [3], 0 to 25%; on MAGL [4], more than 75%.
With `CS(=O)(=O)Nc1ccn(C(=O)N2CCN(Cc3cc4c(Cl)cccc4s3)CC2)n1` [Example 67, N-(1-(4-((4-Chlorobenzo[b]thiophen-2-yl)methyl)piperazine-1-carbonyl)-1H-pyrazol-3-yl)methanesulfonamide], the inhibition at 1 µM on FAAH [1] was 25 to 50%; on MAGL [2], more than 75%; at FAAH [3], 25 to 50%; on MAGL [4], more than 75%.
For `CS(=O)(=O)Nc1ccn(C(=O)N2CCC3(CCN(Cc4cc(Cl)cc(N5CCCC5)c4)C3)CC2)n1` [Example 68, N-(1-(2-(3-Chloro-5-(pyrrolidin-1-yl)benzyl)-2,8-diazaspiro[4.5]decane-8-carbonyl)-1H-pyrazol-3-yl)methanesulfonamide], the inhibition at 1 µM is 0 to 25% on FAAH [1], more than 75% on MAGL [2], 0 to 25% at FAAH [3] and more than 75% on MAGL [4].
Take `C#Cc1ccc(CN2CCN(C(=O)n3ccc(NS(C)(=O)=O)n3)CC2)cc1` [Example 69, N-(1-(4-(4-Ethynylbenzyl)piperazine-1-carbonyl)-1H-pyrazol-3-yl)methanesulfonamide]: the inhibition at 1 µM at FAAH [1], at FAAH [3] and on MAGL [4] was 0 to 25% throughout. The inhibition at 10 µM on MAGL [2] (10 μM, read-out: MAGL % inh. (human) @ 10 μM) was more than 75%.
For the molecule `CS(=O)(=O)Nc1ccn(C(=O)N2CCN(Cc3sc4ccccc4c3Cl)CC2)n1` [Example 70, N-(1-(4-((3-Chlorobenzo[b]thiophen-2-yl)methyl)piperazine-1-carbonyl)-1H-pyrazol-3-yl)methanesulfonamide], the inhibition at 1 µM at FAAH [1] was 0 to 25%; at MAGL [2], more than 75%; on FAAH [3], 0 to 25%; at MAGL [4], more than 75%.
As to `CS(=O)(=O)Nc1ccn(C(=O)N2CCC3(CCN(Cc4ccc(N5CCCC5)c(C(F)(F)F)c4)C3)CC2)n1` [Example 72, N-(1-(2-(4-(Pyrrolidin-1-yl)-3-(trifluoromethyl)benzyl)-2,8-diazaspiro[4.5]decane-8-carbonyl)-1H-pyrazol-3-yl)methanesulfonamide], the inhibition at 1 µM was 0 to 25% on FAAH [1], more than 75% at MAGL [2], 50 to 75% at FAAH [3] and 25 to 50% at MAGL [4].
For `CS(=O)(=O)Nc1ccn(C(=O)N2CCC3(CCN(Cc4ccc(C(F)(F)F)c(N5CCCC5)c4)C3)CC2)n1` [Example 73, N-(1-(2-(3-(Pyrrolidin-1-yl)-4-(trifluoromethyl)benzyl)-2,8-diazaspiro[4.5]decane-8-carbonyl)-1H-pyrazol-3-yl)methanesulfonamide] the same measures were 0 to 25%, more than 75%, 50 to 75% and more than 75%.
The IC50 is the point on the concentration scale where inhibition reaches its midpoint. Take `CS(=O)(=O)Nc1ccn(C(=O)N2CCC3(CCN(Cc4ccc(C(F)(F)F)cc4N4C5CCC4COC5)C3)CC2)n1` [Example 74, N-(1-(2-(2-(3-Oxa-8-azabicyclo[3.2.1]octan-8-yl)-4-(trifluoromethyl)benzyl)-2,8-diazaspiro[4.5]decane-8-carbonyl)-1H-pyrazol-3-yl)methanesulfonamide]: the inhibition at 1 µM on FAAH [1] was 0 to 25%; at MAGL [2], more than 75%; on FAAH [3], 0 to 25%; at MAGL [4], more than 75%. The results for the IC50 at FAAH [1] and at MAGL [2] were 1 to 10 µM and less than 0.1 µM, respectively.
`CS(=O)(=O)Nc1ccn(C(=O)N2CCN(Cc3ccc(C(F)(F)F)cc3NCCC(=O)O)CC2)n1` [Example 77, 3-((2-((4-(3-(Methylsulfonamido)-1H-pyrazole-1-carbonyl)piperazin-1-yl)methyl)-5-(trifluoromethyl)phenyl)amino)propanoic acid]: the inhibition at 1 µM on FAAH [1] lay in the range of 0 to 25%; at MAGL [2] it was 50 to 75%; on FAAH [3], 0 to 25%; at MAGL [4], 0 to 25%.
For `CS(=O)(=O)Nc1ccn(C(=O)N2CC3CN(Cc4ccc(C(F)(F)F)cc4NCCCC(=O)O)CC3C2)n1` (stereo not shown) [Example 78, 4-((2-((5-(3-(Methylsulfonamido)-1H-pyrazole-1-carbonyl)hexahydropyrrolo[3,4-c]pyrrol-2(1H)-yl)methyl)-5-(trifluoromethyl)phenyl)amino)butanoic acid], the inhibition at 1 µM at FAAH [1] is 0 to 25%; on MAGL [2], more than 75%; at FAAH [3], 0 to 25%; on MAGL [4], more than 75%.
Take `CS(=O)(=O)Nc1ccn(C(=O)N2CCN(Cc3cccnc3N3CCCC3)CC2)n1` [Example 81, N-(1-(4-((2-(Pyrrolidin-1-yl)pyridin-3-yl)methyl)piperazine-1-carbonyl)-1H-pyrazol-3-yl)methanesulfonamide]: the inhibition at 1 µM on FAAH [1] was 0 to 25%; on MAGL [2] it was more than 75%; on FAAH [3], 0 to 25%; on MAGL [4] it was 50 to 75%.
As for `CS(=O)(=O)Nc1ccn(C(=O)N2CCN(Cc3ccncc3N3CCCC3)CC2)n1` [Example 82, N-(1-(4-((3-(Pyrrolidin-1-yl)pyridin-4-yl)methyl)piperazine-1-carbonyl)-1H-pyrazol-3-yl)methanesulfonamide], the inhibition at 1 µM on FAAH [1] is 0 to 25%; at MAGL [2], more than 75%; on FAAH [3], 0 to 25%; on MAGL [4], 50 to 75%.
As to `Cc1cc(CN2CCCC23CCN(C(=O)n2ccc(NC(=O)C4CC4)n2)CC3)ccc1Cl` [Example 83, N-(1-(1-(4-Chloro-3-methylbenzyl)-1,8-diazaspiro[4.5]decane-8-carbonyl)-1H-pyrazol-3-yl)cyclopropanecarboxamide], the inhibition at 1 µM at FAAH [1] was 0 to 25%; at MAGL [2], more than 75%; at FAAH [3], 0 to 25%; at MAGL [4], more than 75%.
Consider `CC(=O)Nc1ccn(C(=O)N2CCC3(CCCN3C(=O)c3ccc(Cl)c(C)c3)CC2)n1` [Example 84, N-(1-(1-(4-Chloro-3-methylbenzoyl)-1,8-diazaspiro[4.5]decane-8-carbonyl)-1H-pyrazol-3-yl)acetamide], for which the inhibition at 1 µM is 0 to 25% at FAAH [1], more than 75% on MAGL [2], 0 to 25% on FAAH [3] and more than 75% at MAGL [4].
As to `CC(=O)Nc1ccn(C(=O)N2CCC3(CCCN3C(=O)c3ccc(C#N)c(C)c3)CC2)n1` [Example 85, N-(1-(1-(4-Cyano-3-methylbenzoyl)-1,8-diazaspiro[4.5]decane-8-carbonyl)-1H-pyrazol-3-yl)acetamide], the inhibition at 1 µM at FAAH [1] is 0 to 25%; on MAGL [2] it was more than 75%; at FAAH [3], 0 to 25%; on MAGL [4], more than 75%.
Regarding `CS(=O)(=O)Nc1ccn(C(=O)N2CCN(Cc3ncccc3N3CCCC3)CC2)n1` [Example 86, N-(1-(4-((3-(Pyrrolidin-1-yl)pyridin-2-yl)methyl)piperazine-1-carbonyl)-1H-pyrazol-3-yl)methanesulfonamide], the inhibition at 1 µM on FAAH [1] was in the range of 0 to 25%; on MAGL [2], 25 to 50%; on FAAH [3] it was 0 to 25%; on MAGL [4] it was 25 to 50%.
